Data reported in PubChem BioAssay (NCI).
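Step 1: Grow cells in 96-well plates. Step 2: Expose to compound for 48 hours at 5 concentrations. Step 3: Interpolate endpoints linearly; if unreached, use highest concentration. At the TGI there is no net growth.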

Legend:
Assay in all cases: inhibition of tumour cell growth, NCI panel, 48 h
[1] = system: SF-295 CNS
[2] = system: A549 NSCLC
[3] = system: LOX IMVI melanoma
[4] = system: OVCAR-5 ovarian
[5] = system: SF-268 CNS
[6] = system: HCT-15 colon
[7] = system: SNB-75 CNS
[8] = system: HCC-2998 colon
[9] = system: MCF7 breast
[10] = system: SK-OV-3 ovarian
[11] = system: CAKI-1 renal
[12] = system: HS 578T breast
[13] = system: EKVX NSCLC
[14] = system: CCRF-CEM leukemia
[15] = system: NCI-H23 lung
[16] = system: KM12 colon
[17] = system: M14 melanoma
[18] = system: OVCAR-8 ovarian
[19] = system: SF-539 CNS
[20] = system: RPMI-8226 leukemia
[21] = system: DU-145 prostate
[22] = system: HCT-116 colon
[23] = system: UACC-62 melanoma
[24] = system: UACC-257 melanoma
[25] = system: SN12C renal
[26] = system: HOP-92 NSCLC
[27] = system: T-47D breast
[28] = system: SNB-19 CNS
[29] = system: NCI/ADR-RES ovarian
[30] = system: HOP-62 NSCLC
[31] = system: SK-MEL-2 melanoma
[32] = system: MOLT-4 leukemia
[33] = system: A498 renal
[34] = system: K-562 leukemia
[35] = system: COLO 205 colon
[36] = system: U251 CNS
[37] = system: NCI-H522 lung
[38] = system: SK-MEL-5 melanoma
[39] = system: SW-620 colon
[40] = system: SK-MEL-28 melanoma
[41] = system: HT29 colon
[42] = system: IGROV1 ovarian
[43] = system: PC-3 prostate
[44] = system: NCI-H226 lung
[45] = system: MDA-MB-435
[46] = system: 786-0 renal
[47] = system: TK-10 renal
[48] = system: MALME-3M melanoma
[49] = system: BT-549 breast
[50] = system: MDA-MB-231 breast
[51] = system: NCI-H460 lung
[52] = system: RXF 393 renal
[53] = system: MDA-N
[54] = system: OVCAR-4 ovarian
[55] = system: ACHN renal
[56] = system: HL-60(TB) leukemia
[57] = system: UO-31 renal
[58] = system: SR leukemia
[59] = system: OVCAR-3 ovarian

## C/C(=N/NC(=S)Nc1cccc(Cl)c1)c1cccc(/C(C)=N\NC(=S)Nc2cccc(Cl)c2)n1
[1]
  TGI: > 30 µM
[2]
  TGI: > 24.5 µM
[3]
  TGI: > 38.5 µM
[4]
  TGI: > 85.8 µM
[5]
  TGI: > 47.8 µM
[6]
  TGI: > 100 µM
[7]
  TGI: 40.8 µM
[8]
  TGI: > 100 µM
[9]
  TGI: 8.94 µM
[10]
  TGI: > 55.3 µM
[11]
  TGI: > 48.1 µM
[12]
  TGI: > 74.6 µM
[13]
  TGI: > 39.7 µM
[14]
  TGI: 16.2 µM
[15]
  TGI: > 38.5 µM
[16]
  TGI: > 100 µM
[17]
  TGI: 7.76 µM
[18]
  TGI: > 37.5 µM
[19]
  TGI: 3.72 µM
[20]
  TGI: 15.9 µM
[21]
  TGI: > 73.1 µM
[22]
  TGI: > 35.4 µM
[23]
  TGI: 16.4 µM
[24]
  TGI: 56 µM
[25]
  TGI: > 46.3 µM
[26]
  TGI: > 100 µM
[27]
  TGI: > 100 µM
[28]
  TGI: > 100 µM
[29]
  TGI: > 100 µM
[30]
  TGI: 23.8 µM
[31]
  TGI: > 43.9 µM
[32]
  TGI: 8.67 µM
[33]
  TGI: > 100 µM
[34]
  TGI: > 40.4 µM
[35]
  TGI: > 100 µM
[36]
  TGI: > 59.3 µM
[37]
  TGI: > 27 µM
[38]
  TGI: 35 µM
[39]
  TGI: > 100 µM
[40]
  TGI: > 100 µM
[41]
  TGI: > 42.4 µM
[42]
  TGI: > 75.2 µM
[43]
  TGI: > 58.1 µM
[44]
  TGI: 5.44 µM
[45]
  TGI: > 100 µM
[46]
  TGI: > 41.7 µM
[47]
  TGI: > 100 µM
[48]
  TGI: 22.4 µM
[49]
  TGI: > 100 µM
[50]
  TGI: > 100 µM
[51]
  TGI: > 44.7 µM
[52]
  TGI: > 43.9 µM
[53]
  TGI: > 65.7 µM
[54]
  TGI: > 100 µM
[55]
  TGI: 6.73 µM
[56]
  TGI: > 100 µM
[57]
  TGI: > 20.9 µM
[58]
  TGI: 4.56 µM

## CC(C)C(OC(=O)c1cc(NC(=S)c2ccccc2)ccc1Cl)C(C)C
[1]
  TGI: > 84.7 µM
[2]
  TGI: > 94.7 µM
[3]
  TGI: 70.4 µM
[4]
  TGI: > 100 µM
[5]
  TGI: 82 µM
[6]
  TGI: 74.4 µM
[7]
  TGI: 59.1 µM
[8]
  TGI: > 53.1 µM
[59]
  TGI: 52.5 µM
[9]
  TGI: > 100 µM
[10]
  TGI: 99.4 µM
[11]
  TGI: 51.9 µM
[12]
  TGI: 69 µM
[13]
  TGI: > 86.4 µM
[14]
  TGI: > 96.7 µM
[15]
  TGI: 35.7 µM
[16]
  TGI: 39.6 µM
[17]
  TGI: > 84.8 µM
[18]
  TGI: > 100 µM
[19]
  TGI: 65.5 µM
[20]
  TGI: > 73.5 µM
[21]
  TGI: > 100 µM
[22]
  TGI: 40.8 µM
[23]
  TGI: 38.9 µM
[24]
  TGI: 58.5 µM
[25]
  TGI: 39.6 µM
[26]
  TGI: 34.4 µM
[27]
  TGI: 29.5 µM
[28]
  TGI: > 100 µM
[29]
  TGI: > 100 µM
[30]
  TGI: > 100 µM
[31]
  TGI: 52.6 µM
[32]
  TGI: > 64.2 µM
[33]
  TGI: 58.4 µM
[34]
  TGI: > 100 µM
[35]
  TGI: 41.7 µM
[36]
  TGI: > 61.5 µM
[37]
  TGI: 29.4 µM
[38]
  TGI: 29.9 µM
[39]
  TGI: > 89.6 µM
[40]
  TGI: > 90 µM
[41]
  TGI: 34.4 µM
[42]
  TGI: > 100 µM
[43]
  TGI: 38.4 µM
[44]
  TGI: 45.5 µM
[45]
  TGI: > 100 µM
[46]
  TGI: 50.8 µM
[47]
  TGI: > 86.3 µM
[48]
  TGI: > 57.8 µM
[49]
  TGI: 91.1 µM
[50]
  TGI: 57.4 µM
[51]
  TGI: 47.4 µM
[52]
  TGI: 37.1 µM
[53]
  TGI: 39.8 µM
[54]
  TGI: > 100 µM
[55]
  TGI: 65.7 µM
[56]
  TGI: 55.8 µM
[57]
  TGI: 54.6 µM
[58]
  TGI: > 60.8 µM
